Data published in ChEMBL document CHEMBL1201862, “PubChem BioAssay data set” (2004).
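Test compounds were applied to cells in 96-well plates for 48 hours at 5 doses. At the GI50, growth is halved.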 Activity calls are given as the source filed them. Rule as the data show it: active = GI50 up to about 1.1 µM and inactive = higher.

Experiments:
Assay in all cases: NCI tumour cell line growth inhibition, 48 h
SK-MEL-2 = tested on: SK-MEL-2
SK-MEL-28 = tested on: SK-MEL-28
SW-620 = tested on: SW-620
OVCAR-8 = tested on: OVCAR-8
SK-OV-3 = tested on: SK-OV-3
HOP-62 = tested on: HOP-62
CCRF-CEM = tested on: CCRF-CEM
SR = tested on: SR
HCT-15 = tested on: HCT-15
M14 = tested on: M14
K562 = tested on: K562
EKVX = tested on: EKVX
MDA-MB-435 = tested on: MDA-MB-435
HOP-92 = tested on: HOP-92
MDA-N = tested on: MDA-N
DU-145 = tested on: DU-145
NCI/ADR-RES = tested on: NCI/ADR-RES
RXF 393 = tested on: RXF 393
NCI-H23 = tested on: NCI-H23
T47D = tested on: T47D
U-251 = tested on: U-251
HL-60 = tested on: HL-60
BT-549 = tested on: BT-549
HCC 2998 = tested on: HCC 2998
A498 = tested on: A498
LOX IMVI = tested on: LOX IMVI
SNB-19 = tested on: SNB-19
NCI-H226 = tested on: NCI-H226
SF-539 = tested on: SF-539
NCI-H460 = tested on: NCI-H460
SN12C = tested on: SN12C
SF-268 = tested on: SF-268
COLO 205 = tested on: COLO 205
UACC-257 = tested on: UACC-257
Hs-578T = tested on: Hs-578T
KM12 = tested on: KM12
MOLT-4 = tested on: MOLT-4
UACC-62 = tested on: UACC-62
HT-29 = tested on: HT-29
OVCAR-3 = tested on: OVCAR-3
OVCAR-5 = tested on: OVCAR-5
MDA-MB-231 = tested on: MDA-MB-231
786-0 = tested on: 786-0
CAKI-1 = tested on: CAKI-1
ACHN = tested on: ACHN
RPMI-8226 = tested on: RPMI-8226
Malme-3M = tested on: Malme-3M
IGROV-1 = tested on: IGROV-1
SNB-75 = tested on: SNB-75
OVCAR-4 = tested on: OVCAR-4
HCT-116 = tested on: HCT-116
SK-MEL-5 = tested on: SK-MEL-5
A549 = tested on: A549

Q: How did the GI50 (SK-MEL-2) turn out when `N=c1oc2ccccc2cc1C(=O)Nc1ccccn1` was run?
A: The GI50 was 29.4 µM (inactive).

Q: And the GI50 (SK-MEL-28)?
A: The GI50 was > 100 µM (inactive).

Q: And the GI50 (SW-620)?
A: Its GI50 is > 100 µM (inactive).

Q: And the GI50 (OVCAR-8)?
A: Its GI50 is > 100 µM (inactive).

Q: What about the GI50 (SK-OV-3) of the same molecule?
A: The GI50 was > 100 µM (inactive).

Q: And the GI50 (HOP-62)?
A: Its GI50 is 63 µM (inactive).

Q: What about the GI50 (CCRF-CEM) of the same molecule?
A: The GI50 was 44.8 µM (inactive).

Q: And the GI50 (SR)?
A: The GI50 was 86.7 µM (inactive).

Q: And the GI50 (HCT-15)?
A: Its GI50 is 75 µM.

Q: What about the GI50 (M14) of the same molecule?
A: Its GI50 is > 100 µM (inactive).

Q: And the GI50 (K562)?
A: Its GI50 is > 100 µM (inactive).

Q: What about the GI50 (EKVX) of the same molecule?
A: Its GI50 is 33.2 µM (inactive).

Q: And the GI50 (MDA-MB-435)?
A: The GI50 was > 100 µM (inactive).

Q: What about the GI50 (HOP-92) of the same molecule?
A: Its GI50 is > 100 µM (inactive).

Q: And the GI50 (MDA-N)?
A: Its GI50 is > 100 µM (inactive).

Q: And the GI50 (DU-145)?
A: Its GI50 is > 100 µM (inactive).

Q: What about the GI50 (NCI/ADR-RES) of the same molecule?
A: Its GI50 is > 100 µM (inactive).

Q: And the GI50 (RXF 393)?
A: The GI50 was > 100 µM (inactive).

Q: And the GI50 (NCI-H23)?
A: Its GI50 is > 100 µM (inactive).

Q: And the GI50 (T47D)?
A: The GI50 was 43.7 µM (inactive).

Q: And the GI50 (U-251)?
A: The GI50 was > 100 µM (inactive).

Q: And the GI50 (HL-60)?
A: Its GI50 is > 100 µM (inactive).

Q: What about the GI50 (BT-549) of the same molecule?
A: The GI50 was > 100 µM (inactive).

Q: What about the GI50 (HCC 2998) of the same molecule?
A: Its GI50 is > 100 µM (inactive).

Q: And the GI50 (A498)?
A: Its GI50 is > 100 µM (inactive).

Q: What about the GI50 (LOX IMVI) of the same molecule?
A: The GI50 was 54 µM (inactive).

Q: What about the GI50 (SNB-19) of the same molecule?
A: Its GI50 is > 100 µM (inactive).

Q: What about the GI50 (NCI-H226) of the same molecule?
A: Its GI50 is > 100 µM (inactive).

Q: What about the GI50 (SF-539) of the same molecule?
A: The GI50 was 65.6 µM (inactive).

Q: What about the GI50 (NCI-H460) of the same molecule?
A: Its GI50 is 95.9 µM (inactive).

Q: What about the GI50 (SN12C) of the same molecule?
A: Its GI50 is > 100 µM (inactive).

Q: What about the GI50 (SF-268) of the same molecule?
A: Its GI50 is > 100 µM (inactive).

Q: What about the GI50 (COLO 205) of the same molecule?
A: The GI50 was > 100 µM (inactive).

Q: And the GI50 (UACC-257)?
A: The GI50 was > 100 µM (inactive).

Q: What about the GI50 (Hs-578T) of the same molecule?
A: The GI50 was 75 µM (inactive).

Q: What about the GI50 (KM12) of the same molecule?
A: Its GI50 is 56.5 µM (inactive).

Q: What about the GI50 (MOLT-4) of the same molecule?
A: Its GI50 is 66.4 µM (inactive).

Q: And the GI50 (UACC-62)?
A: The GI50 was 58.6 µM (inactive).

Q: And the GI50 (HT-29)?
A: Its GI50 is > 100 µM (inactive).

Q: And the GI50 (OVCAR-3)?
A: Its GI50 is > 100 µM (inactive).

Q: And the GI50 (OVCAR-5)?
A: Its GI50 is > 100 µM (inactive).

Q: What about the GI50 (MDA-MB-231) of the same molecule?
A: Its GI50 is > 100 µM (inactive).

Q: What about the GI50 (786-0) of the same molecule?
A: Its GI50 is 37.8 µM (inactive).

Q: And the GI50 (CAKI-1)?
A: Its GI50 is 45.4 µM (inactive).

Q: What about the GI50 (ACHN) of the same molecule?
A: Its GI50 is 53.1 µM (inactive).

Q: What about the GI50 (RPMI-8226) of the same molecule?
A: The GI50 was > 100 µM (inactive).

Q: What about the GI50 (Malme-3M) of the same molecule?
A: Its GI50 is 14 µM (inactive).

Q: What about the GI50 (IGROV-1) of the same molecule?
A: Its GI50 is 51.9 µM (inactive).

Q: And the GI50 (SNB-75)?
A: The GI50 was > 100 µM (inactive).

Q: What about the GI50 (OVCAR-4) of the same molecule?
A: The GI50 was > 100 µM (inactive).

Q: And the GI50 (HCT-116)?
A: The GI50 was 51.9 µM (inactive).

Q: What about the GI50 (SK-MEL-5) of the same molecule?
A: The GI50 was > 100 µM (inactive).

Q: And the GI50 (A549)?
A: Its GI50 is > 100 µM (inactive).
